Laboratory results taken from patent US10851067B2, “Kv7 channel activators compositions and methods of use” (Knopp Biosciences LLC, priority 2018, dated 2020).

Target: Kv7.2/7.3 (Homo sapiens, UniProt O43525+O43526)
Assay: Kv7.2/7.3 Activation Assay, QPatch single concentration screen
Format: cell-based
Set-up: host or cells: HEK cells, tetracycline-inducible expression; key: 1.2-2.9 (+); 3-3.9 (++); >4 (+++) fold increase over baseline; O represents open channel at holding potential
Conditions: Kv7.2/Kv7.3 co-expressing HEK cells, compound concentration 3 μM, steady-state current at end of 2 s pulse to −30 mV
How it was run: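 Tetracycline-induced HEK cells expressing human Kv7.2/7.3, recorded 24 h post-induction by automated planar patch clamp. From −80 mV, 2 s steps to −30 mV then 100 ms to −120 mV; compound tested at 3 μM (0.1% DMSO). Steady-state current at end of −30 mV step gives fold increase over baseline.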

Compound | Kv7.2/7.3 Activity: increase over baseline in current
CC(C)(C)CC(=O)Nc1nc2ccc(C(C)(C)O)cc2n1CC(F)(F)F [Example 440, N-(6-(2-hydroxypropan-2-yl)-1-(2,2,2-trifluoroethyl)-1H-benzo[d]imidazol-2-yl)-3,3-dimethylbutanamide] | + (1.2-2.9 (+))
C[C@H](C(=O)Nc1nc2c(F)cc(C(C)(C)O)cc2n1C1CCC1)C(C)(C)C [Example 443, (S)-N-(1-cyclobutyl-4-fluoro-6-(2-hydroxypropan-2-yl)-1H-benzo[d]imidazol-2-yl)-2,3,3-trimethylbutanamide] | ++ (3-3.9 (++))
CC(C)(C)n1c(NC(=O)CC(C)(C)C(F)(F)F)nc2ccc(C#N)c(F)c21 [Example 444, N-(1-(tert-butyl)-6-cyano-7-fluoro-1H-benzo[d]imidazol-2-yl)-4,4,4-trifluoro-3,3-dimethylbutanamide] | ++ (3-3.9 (++))
CC(C)(C)CC(=O)Nc1nc2c(F)cc(C(C)(O)C3CC3)cc2n1C1CCC1 (stereo not shown) [Example 445, N-(1-cyclobutyl-6-(1-cyclopropyl-1-hydroxyethyl)-4-fluoro-1H-benzo[d]imidazol-2-yl)-3,3-dimethylbutanamide] | ++ (3-3.9 (++))
COC(=O)Cc1c(F)ccc2nc(NC(=O)CC(C)(C)C)n(C3CCC3)c12 [Example 447, methyl 2-(1-cyclobutyl-2-(3,3-dimethylbutanamido)-6-fluoro-1H-benzo[d]imidazol-7-yl)acetate] | +++ (>4 (+++) fold increase over baseline)
[2H]C([2H])([2H])C(CC(=O)Nc1nc2ccc(C(C)(C)O)cc2n1C1CCC1)(C([2H])([2H])[2H])C([2H])([2H])[2H] [Example 448, N-(1-cyclobutyl-6-(2-hydroxypropan-2-yl)-1H-benzo[d]imidazol-2-yl)-3,3-bis(methyl-d3)butanamide] | ++ (3-3.9 (++))
CC(C)(C)CC(=O)Nc1nc2cc(F)ccc2n1C1CCC1 [Example 449, N-(1-cyclobutyl-5-fluoro-1H-benzo[d]imidazol-2-yl)-3,3-dimethylbutanamide] | ++ (3-3.9 (++))
CC(C)(C)CC(=O)Nc1nc2cc(C(C)(C)O)c(C(F)(F)F)cc2n1C1CCC1 [Example 450, N-(1-cyclobutyl-5-(2-hydroxypropan-2-yl)-6-(trifluoromethyl)-1H-benzo[d]imidazol-2-yl)-3,3-dimethylbutanamide] | + (1.2-2.9 (+))
CC(C)(C)CC(=O)Nc1nc2ccc(C3(O)CCC3)c(F)c2n1C1CCC1 [Example 451, N-(1-cyclobutyl-7-fluoro-6-(1-hydroxycyclobutyl)-1H-benzo[d]imidazol-2-yl)-3,3-dimethylbutanamide] | O
CC(C)(CC(=O)Nc1nc2cc(F)cc(F)c2n1C1CCC1)C(F)(F)F [Example 453, N-(1-cyclobutyl-5,7-difluoro-1H-benzo[d]imidazol-2-yl)-4,4,4-trifluoro-3,3-dimethylbutanamide] | ++ (3-3.9 (++))
CN(C)c1ccc2nc(NC(=O)CC(C)(C)C)n(C3CCC3)c2c1F [Example 454, N-(1-cyclobutyl-6-(dimethylamino)-7-fluoro-1H-benzo[d]imidazol-2-yl)-3,3-dimethylbutanamide] | +++ (>4 (+++) fold increase over baseline)
C[C@H](C(=O)Nc1nc2ccc(C(C)(C)O)cc2n1C12CC(C1)C2)C(C)(C)C [Example 455, (S)-N-(1-(bicyclo[1.1.1]pentan-1-yl)-6-(2-hydroxypropan-2-yl)-1H-benzo[d]imidazol-2-yl)-2,3,3-trimethylbutanamide] | ++ (3-3.9 (++))
CC(C)(O)c1cc(F)c2nc(NC(=O)CC(C)(C)C(F)F)n(C3CCC3)c2c1 [Example 456, N-(1-cyclobutyl-4-fluoro-6-(2-hydroxypropan-2-yl)-1H-benzo[d]imidazol-2-yl)-4,4-difluoro-3,3-dimethylbutanamide] | ++ (3-3.9 (++))
CC(C)(C)CC(=O)Nc1nc2c(F)cc(C#N)c(F)c2n1C(C)(C)C [Example 457, N-(1-(tert-butyl)-6-cyano-4,7-difluoro-1H-benzo[d]imidazol-2-yl)-3,3-dimethylbutanamide] | ++ (3-3.9 (++))
COc1cccc2nc(NC(=O)CC(C)(C)C3CC3)n(C3CCC3)c12 [Example 458, N-(1-cyclobutyl-7-methoxy-1H-benzo[d]imidazol-2-yl)-3-cyclopropyl-3-methylbutanamide] | +++ (>4 (+++) fold increase over baseline)
CC(C)(C)CC(=O)Nc1nc2c(F)cc(OC(F)F)cc2n1C1(C)CCC1 [Example 459, N-(6-(difluoromethoxy)-4-fluoro-1-(1-methylcyclobutyl)-1H-benzo[d]imidazol-2-yl)-3,3-dimethylbutanamide] | +++ (>4 (+++) fold increase over baseline)

Compound | Kv7.2/7.3 Activity: increase over baseline in current
CC1(n2c(NC(=O)CC(C)(C)C(F)(F)F)nc3c(F)cc(OC(F)F)cc32)CCC1 [Example 461, N-(6-(difluoromethoxy)-4-fluoro-1-(1-methylcyclobutyl)-1H-benzo[d]imidazol-2-yl)-4,4,4-trifluoro-3,3-dimethylbutanamide] | + (1.2-2.9 (+))
CC(C)(CC(=O)Nc1nc2c(F)cc(C#N)c(F)c2n1C1CCC1)C1CC1 [Example 464, N-(6-cyano-1-cyclobutyl-4,7-difluoro-1H-benzo[d]imidazol-2-yl)-3-cyclopropyl-3-methylbutanamide] | ++ (3-3.9 (++))
COc1cc(F)c2nc(NC(=O)CC(C)(C)C)n(C3CCC3)c2c1 [Example 469, N-(1-cyclobutyl-4-fluoro-6-methoxy-1H-benzo[d]imidazol-2-yl)-3,3-dimethylbutanamide] | +++ (>4 (+++) fold increase over baseline)
CC(C)(O)c1c(F)cc2nc(NC(=O)CC(C)(C)C(F)(F)F)n(C3CCC3)c2c1F [Example 470, N-(1-cyclobutyl-5,7-difluoro-6-(2-hydroxypropan-2-yl)-1H-benzo[d]imidazol-2-yl)-4,4,4-trifluoro-3,3-dimethylbutanamide] | + (1.2-2.9 (+))
CC(C)(O)c1ccc2nc(NC(=O)CC(C)(C)C3CC3)n(C34CC(C3)C4)c2c1 [Example 472, N-(1-(bicyclo[1.1.1]pentan-1-yl)-6-(2-hydroxypropan-2-yl)-1H-benzo[d]imidazol-2-yl)-3-cyclopropyl-3-methylbutanamide] | +++ (>4 (+++) fold increase over baseline)
CC(C)(C)CC(=O)Nc1nc2cccc(C#N)c2n1C1(C)CCC1 [Example 473, N-(7-cyano-1-(1-methylcyclobutyl)-1H-benzo[d]imidazol-2-yl)-3,3-dimethylbutanamide] | ++ (3-3.9 (++))
CC1(CC(=O)Nc2nc3c(F)cc(C(C)(C)O)cc3n2C2(C)CCC2)CC1 [Example 474, N-(4-fluoro-6-(2-hydroxypropan-2-yl)-1-(1-methylcyclobutyl)-1H-benzo[d]imidazol-2-yl)-2-(1-methylcyclopropyl)acetamide] | O
CC(C)(C)CC(=O)Nc1nc2ccc(N3CC(F)(F)C3)c(F)c2n1C1CCC1 [Example 475, N-(1-cyclobutyl-6-(3,3-difluoroazetidin-1-yl)-7-fluoro-1H-benzo[d]imidazol-2-yl)-3,3-dimethylbutanamide] | ++ (3-3.9 (++))
COc1cccc2nc(NC(=O)CC(C)(C)C)n(C3CCC3)c12 [Example 476, N-(1-cyclobutyl-7-methoxy-1H-benzo[d]imidazol-2-yl)-3,3-dimethylbutanamide] | + (1.2-2.9 (+))
CC(C)(C)CC(=O)Nc1nc2c(C(F)(F)F)cc(Br)cc2n1C1CCC1 [Example 477, N-(6-bromo-1-cyclobutyl-4-(trifluoromethyl)-1H-benzo[d]imidazol-2-yl)-3,3-dimethylbutanamide] | +++ (>4 (+++) fold increase over baseline)
CC(C)(C)CC(=O)Nc1nc2c(F)cc(C(O)(CF)CF)cc2n1C1CCC1 [Example 479, N-(1-cyclobutyl-6-(1,3-difluoro-2-hydroxypropan-2-yl)-4-fluoro-1H-benzo[d]imidazol-2-yl)-3,3-dimethylbutanamide] | ++ (3-3.9 (++))
CC(CF)(CF)CC(=O)Nc1nc2c(F)cc(C(C)(C)O)cc2n1C1(C)CCC1 [Example 480, 4-fluoro-N-(4-fluoro-6-(2-hydroxypropan-2-yl)-1-(1-methylcyclobutyl)-1H-benzo[d]imidazol-2-yl)-3-(fluoromethyl)-3-methylbutanamide] | O
CC(C)(C)CC(=O)Nc1nc2ccc(C(C)(C)O)c(F)c2n1C1(C)CCC1 [Example 481, N-(7-fluoro-6-(2-hydroxypropan-2-yl)-1-(1-methylcyclobutyl)-1H-benzo[d]imidazol-2-yl)-3,3-dimethylbutanamide] | O
CC(C)(CC(=O)Nc1nc2c(F)cc(C#N)cc2n1C(C)(C)C)C1CC1 [Example 482, N-(1-(tert-butyl)-6-cyano-4-fluoro-1H-benzo[d]imidazol-2-yl)-3-cyclopropyl-3-methylbutanamide] | +++ (>4 (+++) fold increase over baseline)
CC(C)(CC(=O)Nc1nc2ccc(C#N)cc2n1C(C)(C)C(F)(F)F)C(F)(F)F [Example 484, N-(6-cyano-1-(1,1,1-trifluoro-2-methylpropan-2-yl)-1H-benzo[d]imidazol-2-yl)-4,4,4-trifluoro-3,3-dimethylbutanamide] | + (1.2-2.9 (+))
